# Where two headings read alike, the source gives them in different places.
# What was measured:
# [1] = test system: M. tuberculosis transformed with luxABCDE; test: microbe, parasite or virus in culture; assay type: cell-based, Mycobacterium tuberculosis
# [2] = test system: non-replicating cultures of M. tuberculosis H37Rv transformed with lux ABCDE; test: microbe, parasite or virus in culture; assay type: cell-based, Mycobacterium tuberculosis; details: for MIC90: ≥90% reduction in luminescence, read-out: MIC90 LORA; for MIC90 LORA/MABA: ratio of LORA MIC90 to MABA MIC90
# [3] = Mycobacterium tuberculosis, H37RV
Compound,"MIC90 [2, 3]",MIC90 LORA Rel to RMP [2],MIC90 LORA/MABA [2],other results
COc1nc2ccc(Br)cc2cc1[C@@H](c1ccccc1)[C@@](O)(CCN(C)C)c1cccc2ccccc12 [Bedaquiline],,,,"MIC90 ([1]; Mycobacterium tuberculosis, 168 h, day 7 of time-kill study): 0.031 µM; MBC ([1]; Mycobacterium tuberculosis, 168 h, day 7 of time-kill study, read-out: MBC99): 0.124 µM"
"CO[C@H]1/C=C/O[C@@]2(C)Oc3c(C)c(O)c4c(=O)c(c5oc6cccc(OCc7ccc(CN8CCN(C(=O)CN9CCOCC9)CC8)cc7)c6nc-5c4c3C2=O)NC(=O)/C(C)=C\C=C\[C@H](C)[C@H](O)[C@@H](C)[C@@H](O)[C@@H](C)[C@H](OC(C)=O)[C@@H]1C [Compound 16c, (7S,9E,11S,12R,13S,14R,15R,16R,17S,18S,19E,21Z)-2,15,17-Trihydroxy-11-methoxy-3,7,12,14,16,18,22-heptamethyl-32-{[4-({4-[2-(morpholin-4-yl)acetyl]piperazin-1-yl}methyl)phenyl]methoxy}-6,23,37-trioxo-8,27,38-trioxa-24,34-diazahexacyclo[23.11.1.1^4,7.0^5,36.0^26,35.0^28,33]octatriaconta-1(36)2,4,9,19,21,25,28,30,32,34-undecaen-13-yl acetate]",,,,"MBC99 Day 7 (Lux Assay) MBC Rel to RMP [1]: 0.08; MBC ([1]; Mycobacterium tuberculosis, 168 h, […], ≥99% reduction in luminescence, read-out: MBC99 Day 7 (Lux Assay) MBC): 0.061 µM"
"CO[C@H]1/C=C/O[C@@]2(C)Oc3c(C)c(O)c4c(=O)c(c5oc6cc(N7CCN(CC(C)C)CC7)cc(OCc7ccc(CN8CCN(C(=O)CN9CCOCC9)CC8)cc7)c6nc-5c4c3C2=O)NC(=O)/C(C)=C\C=C\[C@H](C)[C@H](O)[C@@H](C)[C@@H](O)[C@@H](C)[C@H](OC(C)=O)[C@@H]1C [Compound 17d, (7S,9E,11S,12R,13S,14R,15R,16R,17S,18S,19E,21Z)-2,15,17-Trihydroxy-11-methoxy-3,7,12,14,16,18,22-heptamethyl-30-[4-(2-methylpropyl)piperazin-1-yl]-32-{[4-({4-[2-(morpholin-4-yl)acetyl]piperazin-1-yl}methyl)phenyl]methoxy}-6,23,37-trioxo-8,27,38-trioxa-24,34-diazahexacyclo[23.11.1.1^4,7.0^5,36.0^26,35.0^28,33]octatriaconta-1(36)2,4,9,19,21,25,28,30,32,34-undecaen-13-yl acetate]",< 0.016 µM,,,
"CO[C@H]1/C=C/O[C@@]2(C)Oc3c(C)c(O)c4c(=O)c(c5oc6cc(N7CCN(C(=O)c8cccc(-n9ccnc9)c8)CC7)cc(C)c6nc-5c4c3C2=O)NC(=O)/C(C)=C\C=C\[C@H](C)[C@H](O)[C@@H](C)[C@@H](O)[C@@H](C)[C@H](OC(C)=O)[C@@H]1C [Compound 29a, (7S,9E,11S,12R,13S,14R,15R,16R,17S,18S,19E,21Z)-2,15,17-Trihydroxy-30-{4-[3-(1H-imidazol-1-yl)benzoyl]piperazin-1-yl}-11-methoxy-3,7,12,14,16,18,22,32-octamethyl-6,23,37-trioxo-8,27,38-trioxa-24,34-diazahexacyclo[23.11.1.1^4,7.0^5,36.0^26,35.0^28,33]octatriaconta-1(36)2,4,9,19,21,25,28,30,32,34-undecaen-13-yl acetate]",0.126 µM,0.61,3.5,
"CO[C@H]1/C=C/O[C@@]2(C)Oc3c(C)c(O)c4c(=O)c(c5oc6cc(N7CCN(CCCO[C@@H]8COc9nc([N+](=O)[O-])cn9C8)CC7)cc(C)c6nc-5c4c3C2=O)NC(=O)/C(C)=C\C=C\[C@H](C)[C@H](O)[C@@H](C)[C@@H](O)[C@@H](C)[C@H](OC(C)=O)[C@@H]1C [Compound 29d, (7S,9E,11S,12R,13S,14R,15R,16R,17S,18S,19E,21Z)-2,15,17-Trihydroxy-11-methoxy-3,7,12,14,16,18,22,32-octamethyl-30-[4-(3-{[(6S)-2-nitro-5H,6H,7H-imidazo[2,1-b][1,3]oxazin-6-yl]oxy}propyl)piperazin-1-yl]-6,23,37-trioxo-8,27,38-trioxa-24,34-diazahexacyclo[23.11.1.1^4,7.0^5,36.0^26,35.0^28,33]octatriaconta-1(36)2,4,9,19,21,25,28,30,32,34-undecaen-13-yl acetate]",0.053 µM,0.20,1.4,
"CO[C@H]1/C=C/O[C@@]2(C)Oc3c(C)c(O)c4c(=O)c(c5oc6cc(C)cc(N7CCN(C)CC7)c6nc-5c4c3C2=O)NC(=O)/C(C)=C\C=C\[C@H](C)[C@H](O)[C@@H](C)[C@@H](O)[C@@H](C)[C@H](OC(C)=O)[C@@H]1C [Compound 30a, (7S,9E,11S,12R,13S,14R,15R,16R,17S,18S,19E,21Z)-2,15,17-Trihydroxy-11-methoxy-3,7,12,14,16,18,22,30-octamethyl-32-(4-methylpiperazin-1-yl)-6,23,37-trioxo-8,27,38-trioxa-24,34-diazahexacyclo[23.11.1.1^4,7.0^5,36.0^26,35.0^28,33]octatriaconta-1(36)2,4,9,19,21,25,28,30,32,34-undecaen-13-yl acetate]",,<0.06,,MIC90 [2]: <0.016 µM
"CO[C@H]1/C=C/O[C@@]2(C)Oc3c(C)c(O)c4c(=O)c(c5oc6cc(C=O)cc(N7CCN(C)CC7)c6nc-5c4c3C2=O)NC(=O)/C(C)=C\C=C\[C@H](C)[C@H](O)[C@@H](C)[C@@H](O)[C@@H](C)[C@H](OC(C)=O)[C@@H]1C [Compound 30b, (7S,9E,11S,12R,13S,14R,15R,16R,17S,18S,19E,21Z)-30-Formyl-2,15,17-trihydroxy-11-methoxy-3,7,12,14,16,18,22-heptamethyl-32-(4-methylpiperazin-1-yl)-6,23,37-trioxo-8,27,38-trioxa-24,34-diazahexacyclo[23.11.1.1^4,7.0^5,36.0^26,35.0^28,33]octatriaconta-1(36)2,4,9,19,21,25,28,30,32,34-undecaen-13-yl acetate]",,0.44,3.1,MIC90 [2]: 0.114 µM
"CO[C@H]1/C=C/O[C@@]2(C)Oc3c(C)c(O)c4c(=O)c(c5oc6cc(C)cc(N7CCN(CC(C)C)CC7)c6nc-5c4c3C2=O)NC(=O)/C(C)=C\C=C\[C@H](C)[C@H](O)[C@@H](C)[C@@H](O)[C@@H](C)[C@H](OC(C)=O)[C@@H]1C [Compound 30c, (7S,9E,11S,12R,13S,14R,15R,16R,17S,18S,19E,21Z)-2,15,17-Trihydroxy-11-methoxy-3,7,12,14,16,18,22,30-octamethyl-32-[4-(2-methylpropyl)piperazin-1-yl]-6,23,37-trioxo-8,27,38-trioxa-24,34-diazahexacyclo[23.11.1.1^4,7.0^5,36.0^26,35.0^28,33]octatriaconta-1(36)2,4,9,19,21,25,28,30,32,34-undecaen-13-yl acetate]",< 0.016 µM,<0.06,,
"CO[C@H]1/C=C/O[C@@]2(C)Oc3c(C)c(O)c4c(=O)c(c5oc6cc(C=O)cc(N7CCN(CC(C)C)CC7)c6nc-5c4c3C2=O)NC(=O)/C(C)=C\C=C\[C@H](C)[C@H](O)[C@@H](C)[C@@H](O)[C@@H](C)[C@H](OC(C)=O)[C@@H]1C [Compound 30d, (7S,9E,11S,12R,13S,14R,15R,16R,17S,1S,19E,21Z)-30-Formyl-2,15,17-trihydroxy-11-methoxy-3,7,12,14,16,18,22-heptamethyl-32-[4-(2-methylpropyl)piperazin-1-yl]-6,23,37-trioxo-8,27,38-trioxa-24,34-diazahexacyclo[23.11.1.1^4,7.0^5,36.0^26,35.0^28,33]octatriaconta-1(36)2,4,9,19,21,25,28,30,32,34-undecaen-13-yl acetate]",,0.07,,MIC90 [2]: 0.017 µM
"CO[C@H]1/C=C/O[C@@]2(C)Oc3c(C)c(O)c4c(=O)c(c5oc6cc(C)cc(N7CCN(C(=O)c8cccc(-c9ccccn9)c8)CC7)c6nc-5c4c3C2=O)NC(=O)/C(C)=C\C=C\[C@H](C)[C@H](O)[C@@H](C)[C@@H](O)[C@@H](C)[C@H](OC(C)=O)[C@@H]1C [Compound 30g, (7S,9E,11S,12R,13S,14R,15R,16R,17S,18S,19E,21Z)-2,15,17-Trihydroxy-11-methoxy-3,7,12,14,16,18,22,30-octamethyl-6,23,37-trioxo-32-{4-[3-(pyridin-2-yl)benzoyl]piperazin-1-yl}-8,27,38-trioxa-24,34-diazahexacyclo[23.11.1.1^4,7.0^5,36.0^26,35.0^28,33]octatriaconta-1(36)2,4,9,19,21,25,28,30,32,34-undecaen-13-yl acetate]",0.032 µM,0.16,1.2,
"CO[C@H]1/C=C/O[C@@]2(C)Oc3c(C)c(O)c4c(=O)c(c5oc6cc(C)cc(N7CCN(C(=O)c8ccc9occc9c8)CC7)c6nc-5c4c3C2=O)NC(=O)/C(C)=C\C=C\[C@H](C)[C@H](O)[C@@H](C)[C@@H](O)[C@@H](C)[C@H](OC(C)=O)[C@@H]1C [Compound 30h, (7S,9E,11S,12R,13S,14R,15R,16R,17S,18S,19E,21Z)-32-[4-(1-Benzofuran-5-carbonyl)piperazin-1-yl]-2,15,17-trihydroxy-11-methoxy-3,7,12,14,16,18,22,30-octamethyl-6,23,37-trioxo-8,27,38-trioxa-24,34-diazahexacyclo[23.11.1.1^4,7.0^5,36.0^26,35.0^28,33]octatriaconta-1(36)2,4,9,19,21,25,28,30,32,34-undecaen-13-yl acetate]",0.042 µM,0.20,2.2,
"CO[C@H]1/C=C/O[C@@]2(C)Oc3c(C)c(O)c4c(=O)c(c5oc6cc(C=Nc7ccc(N8CCOCC8)cc7)cc(N7CCN(C)CC7)c6nc-5c4c3C2=O)NC(=O)/C(C)=C\C=C\[C@H](C)[C@H](O)[C@@H](C)[C@@H](O)[C@@H](C)[C@H](OC(C)=O)[C@@H]1C [Compound 32, (7S,9E,11S,12R,13S,14R,15R,16R,17S,18S,19E,21Z)-2,15,17-trihydroxy-11-methoxy-3,7,12,14,16,18,22-heptamethyl-32-(4-methylpiperazin-1-yl)-30-{N-[4-(morpholin-4-yl)phenyl]carboximidoyl}-6,23,37-trioxo-8,27,38-trioxa-24,34-diazahexacyclo[23.11.1.1^4,7.0^5,36.0^26,35.0^28,33]octatriaconta-1,3,5(36)9,19,21,25,28,30,32,34-undecaen-13-yl acetate]",0.118 µM,0.45,2.5,

# — patent US20250188092A1, “RIFAMYCIN ANALOGS” (THE REGENTS OF THE UNIVERSITY OF MICHIGAN, priority 2021, published 2025)
